Format in all cases: functional
The subject of test [1] is Pasteurella multocida. Put plainly: In vitro inhibition of Pasteurella multocida growth.
Test [2] concerns Escherichia coli. The experiment in a line: In vitro inhibition of Escherichia coli growth.
Test [3] deals with Staphylococcus aureus. Put plainly: In vitro inhibition of MRSA growth.

≈ marks a conversion by molar mass, not a printed value. Bounds are passed on as bounds.

As to `CC(C)(C)c1ccc(COC(=O)NC2CC([C@H]3NC(=O)/C(=C/NC(N)=O)NC(=O)[C@@H](CO)NC(=O)[C@@H](CO)NC(=O)C(NC(=O)C[C@@H](N)CCCN)CNC3=O)N=C(N)N2)cc1` (some centres undefined), the results for the MIC in test [1] and in test [2] were 12.5 µg/mL (≈ 14.3 µM) and 25 µg/mL (≈ 28.6 µM), respectively.
In the case of `NCCC[C@H](N)CC(=O)NC1CNC(=O)[C@@H](C2CC(NC(=O)OCc3ccc(I)cc3)N=C(N)N2)NC(=O)/C(=C/NC(N)=O)NC(=O)[C@@H](CO)NC(=O)[C@@H](CO)NC1=O` (some centres undefined), the minimal inhibitory concentration (MIC) (as a rule, the smallest concentration in the dilution series that meets the test's criterion for growth inhibition) in test [1] was determined as 3.13 µg/mL (≈ 3.31 µM); in test [3] it was 12.5 µg/mL (≈ 13.2 µM); in test [2], 12.5 µg/mL (≈ 13.2 µM).
With `NCCC[C@H](N)CC(=O)NC1CNC(=O)[C@@H](C2CC(NC(=O)OCc3ccccc3)N=C(N)N2)NC(=O)/C(=C/NC(N)=O)NC(=O)[C@@H](CO)NC(=O)[C@@H](CO)NC1=O` (some centres undefined), the results for the MIC in test [1] and in test [2] were 25 µg/mL (≈ 30.5 µM) and 50 µg/mL (≈ 61.1 µM), respectively.
With `COc1ccc(C2CC([C@H]3NC(=O)/C(=C/NC(N)=O)NC(=O)[C@@H](CO)NC(=O)[C@@H](CO)NC(=O)C(NC(=O)C[C@@H](N)CCCN)CNC3=O)N=C(N)N2)cc1OC` (some centres undefined), the minimal inhibitory concentration (MIC) in test [1] and in test [2] was > 200 µg/mL throughout.
In the case of `NCCC[C@H](N)CC(=O)NC1CNC(=O)[C@@H](C2CC(NC(=O)Nc3ccc(Cl)c(Cl)c3)N=C(N)N2)NC(=O)/C(=C/NC(=O)Nc2ccc(Cl)c(Cl)c2)NC(=O)[C@@H](CO)NC(=O)[C@@H](CO)NC1=O` (some centres undefined), the minimal inhibitory concentration (MIC) in test [1] was 6.25 µg/mL (≈ 6.14 µM); in test [3], 25 µg/mL (≈ 24.6 µM); in test [2], 6.25 µg/mL (≈ 6.14 µM).
On to `NCCC[C@H](N)CC(=O)NC1CNC(=O)[C@@H](C2CC(O)N=C(N)N2)NC(=O)/C(=C/NC(=O)Nc2ccc(Cl)c(Cl)c2)NC(=O)[C@@H](CO)NC(=O)[C@@H](CO)NC1=O` (some centres undefined), for which the values for the MIC in test [1] and in test [2] were 3.12 µg/mL (≈ 3.76 µM) and 50 µg/mL (≈ 60.2 µM), respectively.
For the compound `NCCC[C@H](N)CC(=O)NC1CNC(=O)[C@@H](C2CC(c3ccc(O)c(O)c3)N=C(N)N2)NC(=O)/C(=C/NC(N)=O)NC(=O)[C@@H](CO)NC(=O)[C@@H](CO)NC1=O` (some centres undefined), the MIC in test [1] and in test [2] was 200 µg/mL (≈ 257 µM) throughout.
As to `Cc1ccc(S(=O)(=O)NC2CC([C@H]3NC(=O)/C(=C/NC(N)=O)NC(=O)[C@@H](CO)NC(=O)[C@@H](CO)NC(=O)C(NC(=O)C[C@@H](N)CCCN)CNC3=O)N=C(N)N2)cc1` (some centres undefined), the MIC in test [1] and in test [2] was 200 µg/mL (≈ 238 µM) each time.
For `NCCC[C@H](N)CC(=O)NC1CNC(=O)[C@@H](C2CC(NC(=O)NCc3cccc(C4CCCCC4)c3)N=C(N)N2)NC(=O)/C(=C/NC(N)=O)NC(=O)[C@@H](CO)NC(=O)[C@@H](CO)NC1=O` (some centres undefined), inhibition of growth in test [3] (MIC) required 12.5 µg/mL (≈ 13.9 µM).
On to `NCCC[C@H](N)CC(=O)NC1CNC(=O)[C@@H](C2CC(c3ccc(O)c(O)c3)N=C(N)N2)NC(=O)/C(=C/NC(=O)Nc2ccc(Cl)c(Cl)c2)NC(=O)[C@@H](CO)NC(=O)[C@@H](CO)NC1=O` (some centres undefined), for which the MIC in test [1] and in test [2] was 12.5 µg/mL (≈ 13.5 µM) throughout.
Take `NCCC[C@H](N)CC(=O)NC1CNC(=O)[C@@H](C2CC(NC(=O)OCc3cccc(I)c3)N=C(N)N2)NC(=O)/C(=C/NC(N)=O)NC(=O)[C@@H](CO)NC(=O)[C@@H](CO)NC1=O` (some centres undefined): the minimal inhibitory concentration (MIC) in test [1] was 6.25 µg/mL (≈ 6.62 µM); in test [3], 12.5 µg/mL (≈ 13.2 µM); in test [2], 6.25 µg/mL (≈ 6.62 µM).
`COc1ccc(C2CC([C@H]3NC(=O)/C(=C/NC(=O)Nc4ccc(Cl)c(Cl)c4)NC(=O)[C@@H](CO)NC(=O)[C@@H](CO)NC(=O)C(NC(=O)C[C@@H](N)CCCN)CNC3=O)N=C(N)N2)cc1OC` (some centres undefined): the MIC in test [1] and in test [2] was 12.5 µg/mL (≈ 13.1 µM) in each case.
Consider `NCCC[C@H](N)CC(=O)NC1CNC(=O)[C@@H](C2CC(N[C@H](CS)C(=O)O)N=C(N)N2)NC(=O)/C(=C/NC(=O)Nc2ccc(Cl)c(Cl)c2)NC(=O)[C@@H](CO)NC(=O)[C@@H](CO)NC1=O` (some centres undefined), for which the MIC was 3.12 µg/mL (≈ 3.34 µM) in test [1] and 25 µg/mL (≈ 26.8 µM) in test [2].
Take `NCCC[C@H](N)CC(=O)NC1CNC(=O)[C@@H](C2CC(NC(=O)Nc3ccc(Cl)c(Cl)c3)N=C(N)N2)NC(=O)/C(=C/NC(N)=O)NC(=O)[C@@H](CO)NC(=O)[C@@H](CO)NC1=O` (some centres undefined): the minimal inhibitory concentration (MIC) worked out at 1.56 µg/mL (≈ 1.79 µM) in test [1], 25 µg/mL (≈ 28.6 µM) in test [3] and 6.25 µg/mL (≈ 7.16 µM) in test [2].
As for `NCCC[C@H](N)CC(=O)NC1CNC(=O)[C@@H](C2CC(NC(=O)NCc3ccc(Cl)c(Cl)c3)N=C(N)N2)NC(=O)/C(=C/NC(N)=O)NC(=O)[C@@H](CO)NC(=O)[C@@H](CO)NC1=O` (some centres undefined), the MIC in test [1] was 3.13 µg/mL (≈ 3.53 µM); in test [2], 12.5 µg/mL (≈ 14.1 µM).
Regarding `NCCC[C@H](N)CC(=O)NC1CNC(=O)[C@@H](C2CC(O)N=C(N)N2)NC(=O)/C(=C/NC(N)=O)NC(=O)[C@@H](CO)NC(=O)[C@@H](CO)NC1=O` (some centres undefined), the MIC in test [1] and in test [2] was 200 µg/mL (≈ 292 µM) throughout.
As to `NCCC[C@H](N)CC(=O)NC1CNC(=O)[C@@H](C2CC(NC(=O)OCc3ccc(Cl)c(Cl)c3)N=C(N)N2)NC(=O)/C(=C/NC(N)=O)NC(=O)[C@@H](CO)NC(=O)[C@@H](CO)NC1=O` (some centres undefined), the MIC in test [1] was 6.25 µg/mL (≈ 7.04 µM); in test [3], 3.12 µg/mL (≈ 3.51 µM); in test [2], 25 µg/mL (≈ 28.2 µM).
Take `NCCC[C@H](N)CC(=O)NC1CNC(=O)[C@@H](C2CC(NC(=O)NCc3ccc(C4CCCCC4)cc3)N=C(N)N2)NC(=O)/C(=C/NC(N)=O)NC(=O)[C@@H](CO)NC(=O)[C@@H](CO)NC1=O` (some centres undefined): in test [3], it took 25 µg/mL (≈ 27.8 µM) to inhibit growth (MIC).
With `NCCC[C@H](N)CC(=O)NC1CNC(=O)[C@@H](C2CC(SCCN)NC(N)=N2)NC(=O)/C(=C/NC(=O)Nc2ccc(Cl)c(Cl)c2)NC(=O)[C@@H](CO)NC(=O)[C@@H](CO)NC1=O` (some centres undefined), the MIC was determined as 3.12 µg/mL (≈ 3.51 µM) in test [1] and 25 µg/mL (≈ 28.1 µM) in test [2].
`CSC[C@@H](NC1CC([C@H]2NC(=O)/C(=C/NC(=O)Nc3ccc(Cl)c(Cl)c3)NC(=O)[C@@H](CO)NC(=O)[C@@H](CO)NC(=O)C(NC(=O)C[C@@H](N)CCCN)CNC2=O)N=C(N)N1)C(=O)O` (some centres undefined): the MIC is 3.12 µg/mL (≈ 3.29 µM) in test [1] and 25 µg/mL (≈ 26.4 µM) in test [2].
`NCCC[C@H](N)CC(=O)NC1CNC(=O)[C@@H](C2CC(NC(=O)OCc3cccc(Cl)c3Cl)N=C(N)N2)NC(=O)/C(=C/NC(N)=O)NC(=O)[C@@H](CO)NC(=O)[C@@H](CO)NC1=O` (some centres undefined): the MIC came to 3.13 µg/mL (≈ 3.53 µM) in test [1], 12.5 µg/mL (≈ 14.1 µM) in test [3] and 25 µg/mL (≈ 28.2 µM) in test [2].
On to `NCCC[C@H](N)CC(=O)NC1CNC(=O)[C@@H](C2CC(NC(=O)OCc3ccc(Cl)cc3Cl)N=C(N)N2)NC(=O)/C(=C/NC(=O)Nc2ccc(Cl)c(Cl)c2)NC(=O)[C@@H](CO)NC(=O)[C@@H](CO)NC1=O` (some centres undefined), for which the minimum inhibitory concentration (MIC) worked out at 6.25 µg/mL (≈ 6.05 µM) in test [1], 12.5 µg/mL (≈ 12.1 µM) in test [3] and 3.13 µg/mL (≈ 3.03 µM) in test [2].
With `CC(=O)N(C1CC([C@H]2NC(=O)/C(=C/NC(=O)Nc3ccc(Cl)c(Cl)c3)NC(=O)[C@@H](CO)NC(=O)[C@@H](CO)NC(=O)C(NC(=O)C[C@@H](N)CCCN)CNC2=O)N=C(N)N1)[C@H](CS)C(=O)O` (some centres undefined), the MIC is 6.25 µg/mL (≈ 6.4 µM) in test [1] and 50 µg/mL (≈ 51.2 µM) in test [2].
Turning to `NCCC[C@H](N)CC(=O)NC1CNC(=O)[C@@H](C2CC(NC(=O)OCc3ccc(Cl)cc3F)N=C(N)N2)NC(=O)/C(=C/NC(N)=O)NC(=O)[C@@H](CO)NC(=O)[C@@H](CO)NC1=O` (some centres undefined), the results for the minimum inhibitory concentration (MIC) in test [1] and in test [2] were 3.13 µg/mL (≈ 3.59 µM) and 12.5 µg/mL (≈ 14.3 µM), respectively.
`CN[C@H](CC(C)C)C(=O)N[C@H]1C(=O)N[C@@H](CC(N)=O)C(=O)N[C@H]2C(=O)N[C@H]3C(=O)N[C@H](C(=O)N[C@H](C(=O)O)c4cc(O)cc(O)c4-c4cc3ccc4O)[C@H](O)c3ccc(c(Cl)c3)Oc3cc2cc(c3O[C@@H]2O[C@H](CO)[C@@H](O)[C@H](O)[C@H]2O[C@H]2C[C@](C)(N)[C@H](O)[C@H](C)O2)Oc2ccc(cc2Cl)[C@H]1O` [VANCOMYCIN] had a minimum inhibitory concentration (MIC) in test [3] of 0.78 µg/mL (≈ 0.538 µM).

These data come from ChEMBL document CHEMBL1129920, “Cyclic homopentapeptides 2. Synthetic modifications of viomycin” (1997).
